Type in all cases: cell-based, human
In assay [1] the test system is CTGF, fibronectin (FN), collagen type IV (Col IV) mRNA. As to the kind of experiment: RT-PCR of TGF-β1-induced mRNA expression in HFL-1 cells treated with simvastatin. The conditions noted are these: 10 ng/ml TGF-β1 for 20 hours, FIG. 7A. How it is done: Cell Culture and Treatment. Normal human fetal lung fibroblasts (HFL-1) were purchased from the American Type Culture Collection (ATCC Number: CCL-153) and cultured in Ham's F12K medium (American Type Culture Collection) supplemented with 2 mM L-glutamine adjusted to contain 1.5 g/L sodium bicarbonate and 10% fetal bovine serum. Cells were maintained in humidified 5% CO2 at 37° C. Human dermal fibroblasts (HDF), derived from the dermis of normal human adult skin, were purchased from Invitrogen, Inc. and cultured in Medium-106 (Invitrogen, Inc., Catalogue No. M-106-500) containing LSGS Kit (Invitrogen, Inc., Catalogue No. […]) prior to use. After reaching 75-80% confluence, the medium was changed to serum free medium (SFM) for irradiation with different dose 1Gy, 2.5Gy, 5Gy, 7.5Gy and 10 Gy by using ^137Se. Alternatively, cells were treated with 5 ng/ml TGF-β1 (Sigma-Aldrich, Inc., Catalogue No. T7039) to stimulate CTGF production. The cells were then kept for 3 days in humidified 5% CO2 at 37° C. and subjected to Western immunoblot.^1 ^1What are the culture conditions (e.g., media) for M12 cells used in FIG. 3? RT-PCR analysis of CTGF, COL-IV, FN and hβ2M. […] The ability of statins to inhibit TGF-β1-mediated induction of CTGF, fibronectin, and collagen type IV was assessed in HFL-1 cells. […]

The test system of assay [2] is CTGF, fibronectin. As to the kind of experiment: Western blot of irradiated HFL-1 cells treated with HMG-CoA inhibitors. The conditions noted are these: simvastatin pretreatment 6 hours, 5 Gy, three days, FIG. 8B. How it is done: For statin treatment experiments, cells were grown overnight in 35 mm plates (6-well plates were also used in some studies) to form a 75-80% confluent monolayer. The cells were then washed with PBS, and the media was changed to SFM (800 μL).
Harvesting Culture Media and Cell Lystates. For analysis of extracellular CTGF, fibronectin, and α-tubulin, cell culture media was collected, centrifuged to remove cellular debris, aliquoted, and frozen at −70° C. until ready for use. For analysis of intracellular CTGF, fibronectin, and α-tubulin, cell lysates were harvested using 200 μL of HBSST lysis buffer (HBSS containing 1 mM MgSO4, 1 mM CaCl2, 4 mM NaHCO3, 0.5% Triton X-100, protease inhibitor cocktail). Cellular debris was removed by centrifugation.
Western blot analysis of HFL-1 whole cell proteins. […] Primary antibodies for CTGF and fibronectin were diluted at 1:600 and were incubated at 4° C. overnight with shaking. Primary antibodies for α-tubulin were diluted at 1:4,000 and were incubated at 4° C. overnight with shaking. Corresponding secondary antibodies were diluted at 1:6,000 and were incubated at room temperature for 1 hour with shaking. After washing the blot, the antibodies were detected by the enhanced chemiluminescence method (PerkinElmer Life Sciences Inc.).
Cells were harvested, and cell lysates were separated by SDS-PAGE. The separated proteins were then transferred to nitrocellulose, and Western immunoblotting was performed with antibodies specific for CTGF, fibronectin, and α-tubulin. […] As a control for protein loading, α-tubulin expression in HFL-1 cells was also determined.
Cells were harvested, and cell lysates were separated by SDS-PAGE. The separated proteins were then transferred to nitrocellulose, and Western immunoblotting was performed with antibodies specific for CTGF, fibronectin, and α-tubulin. FIG. 8C is a Western blot of HFL-1 cells exposed to radiation and treated with HMG-CoA inhibitors.

The subject of assay [3] is CTGF, fibronectin. The assay is described as follows: Western blot of HDF cells treated with TGF-β1 and simvastatin. Conditions: 10 ng/ml TGF-β1 plus simvastatin, three days, FIG. 10B. Here is the method: Cell Culture and Treatment. Normal human fetal lung fibroblasts (HFL-1) were purchased from the American Type Culture Collection (ATCC Number: CCL-153) and cultured in Ham's F12K medium (American Type Culture Collection) supplemented with 2 mM L-glutamine adjusted to contain 1.5 g/L sodium bicarbonate and 10% fetal bovine serum. Cells were maintained in humidified 5% CO2 at 37° C. Human dermal fibroblasts (HDF), derived from the dermis of normal human adult skin, were purchased from Invitrogen, Inc. and cultured in Medium-106 (Invitrogen, Inc., Catalogue No. M-106-500) containing LSGS Kit (Invitrogen, Inc., Catalogue No. S-003-K) prior to use. […]
Harvesting Culture Media and Cell Lystates. For analysis of extracellular CTGF, fibronectin, and α-tubulin, cell culture media was collected, centrifuged to remove cellular debris, aliquoted, and frozen at −70° C. until ready for use. […]
Western blot analysis of HFL-1 whole cell proteins. […] After washing the blot, the antibodies were detected by the enhanced chemiluminescence method (PerkinElmer Life Sciences Inc.).
The separated proteins were then transferred to nitrocellulose, and Western immunoblotting was performed with antibodies specific for CTGF, fibronectin, and α-tubulin. […] As a control for protein loading, α-tubulin expression in HFL-1 cells was also determined.
(A western blot detects proteins with antibodies after separation by electrophoresis.)

Each structure is given as a SMILES string.

Take `CCC(C)(C)C(=O)O[C@H]1C[C@@H](C)C=C2C=C[C@H](C)[C@H](CC[C@@H]3C[C@@H](O)CC(=O)O3)[C@H]21` [simvastatin, 2,2-dimethyl-butanoic acid(1S,3R,7S,8S,8aR)-1,2,3,7,8,8a-hexahydro-3,7-dimethyl-8-[2-[(2R,4R)-tetrahydro-4-hydroxy-6-oxo-2H-pyran-2-yl]ethyl]-1-naphthalenylester]: the “CTGF, FN, and Col IV mRNA expression” value is “reduction in CTGF, FN, and Col IV mRNA expression” in assay [1] (0.1 μM simvastatin); “reduction in CTGF, FN, and Col IV mRNA expression became more pronounced” in assay [1] (increasing concentration of simvastatin). Moreover, the fibronectin protein expression result in the assay with CTGF, fibronectin [2] is listed as “decrease in protein expression or fibronectin”; in the assay with CTGF, fibronectin [3], “decrease in protein expression of fibronectin”.

The values above are taken from patent US20090069623A1, “METHODS AND COMPOSITIONS FOR TREATMENT OR PREVENTION OF RADIATION-INDUCED FIBROSIS” (Virginia Commonwealth University Intellectual Property …, priority 2007, published 2009).
